According to patent US9234004B2, “Antimicrobial peptides” (Agency for Science, Technology and Research, priority 2010, dated 2016):
In brackets after ≈: the same amount, converted by molar mass. Where two headings read alike, the source gives them in different places. Ends that are not written are not given here. Peptide text beside a SMILES is read from it.

Legend:
Assay type in all cases: cell-based
[1] = system: rat red blood cells; test: Hemolytic activity test
Description: Peptides were obtained from GL Biochem (Shanghai, China), and their fidelity was further confirmed via matrix-assisted laser desorption/ionization time-of-flight mass spectroscopy (MALDI-TOF MS, Model Autoflex II, Bruker Daltonics Inc., U.S.A.), using α-cyano-4-hydroxycinnamic acid as matrix. The purity of the peptides was also tested to be more than 95% with analytical reverse phase (RP)-HPLC. α-Cyano-4-hydroxycinnamic acid (HCCA) was purchased from Sigma-Aldrich (Singapore) and used in saturated acetonitrile/water (1:1 volume ratio) after being re-crystallized. Sodium dodecyl sulphate (SDS) micelle solution (10% w/v in DI water) was obtained from 1st Base (Malaysia) and used upon dilution to the desirable concentration range. Tryptic soy broth (TSB) powder and yeast mould broth (YMB) powder were purchased from BD Diagnostics (Singapore) and used to prepare the microbial broths according to the manufacturer's instructions. Phosphate-buffered saline solution at 10× concentration was purchased from 1st Base (Malaysia) and used after dilution to the desired concentration. Ethanol (analytical grade, 99%) and glutaraldehyde (synthetic grade, 50% in H2O) were purchased from Sigma Aldrich (Singapore) and used as received. […] Red blood cells used in the experiments were obtained from rats maintained at the Animal Handling Units of the Biomedical Research Centers (Singapore). Human peripheral blood mononuclear cells (PBMCs) were extracted from healthy blood donors and maintained with RPMI medium supplemented with 10% lowendotoxin fetal bovine serum (FBS) and 1% penicillin-streptomycin. Granulocyte macrophage-colony stimulating factor (GM-CSF) and lipopolysaccharide were purchased from Sigma-Aldrich and used as received.
Fresh red blood cells were washed with PBS for three times, and were subjected to 25 times dilution with PBS to reach a concentration of approximately 4% (in volume) of the blood cells. The red blood cell suspension (100 μL) was placed into a 96-well cell culture plate and mixed with 100 μL of the antimicrobial peptide solution in PBS at concentrations of 0.98, 1.95, 3.90, 7.81, 15.63, 31.25, 62.5, 125, 250, 500 mg/L. The mixture was then incubated at 37° C. for 1 hour to allow for the hemolysis process to take place. At the end of incubation time, the non-hemolysed red blood cells were separated by centrifugation at 13000 g for 5 minutes. Aliquots (100 μL) of the supernatant were transferred into a new 96-well plate, and the hemoglobin release was measured by checking the UV-absorbance of the samples at 576 nm using a microplate reader (TECAN, Switzerland). Two controls were provided in this assay: an untreated red blood cell suspension in PBS was used as the negative control, and a solution containing red blood cells lysed with 0.1% Triton-X was used as the positive control. Each assay was performed in 6 replicates, and the data were expressed as means and standard deviations of the 6 replicates. Percentage of hemolysis was calculated using the following formula: Hemolysis (%)=[(O.D.576 nm of the treated sample−O.D.576 nm of the negative control)/(O.D.576 nm of positive control−O.D.576 nm of negative control)]×100%. Field Emission-Scanning Electron Microscopy (FE-SEM) Analysis of Bacterial Cells

[2] = system: B. subtilis
Description: (§1) Microbial cells were firstly re-constituted from its lyophilized form according to the manufacturer's protocol. Bacterial cells were cultured in tryptic soy broth (TSB) at 37° C., and yeast cells were cultured in yeast mould broth (YMB) at room temperature under constant shaking at 100 rpm. Broth containing an antimicrobial peptide was prepared at various concentrations (0.98, 1.95, 3.90, 7.81, 15.63, 31.25, 62.5, 125, 250, 500 mg/L) and transferred into a 96-well tissue culture plate (100 μL/well). Microorganism was first inoculated overnight to enter its log growth-phase. An equal volume of microorganism solution (100 μL) was added into each well of the 96-well plate containing the antimicrobial peptide. Prior to this mixing, the concentration of microorganism solution was adjusted to give an initial optical density (O.D.) reading of 0.1-0.2 at 600 nm wavelength. The growth of the microorganism was observed upon introducing the antimicrobial peptide by measuring the O.D. readings at 2 hour intervals for up to 8 hours. […] Broth containing microbial cells was used as the negative control, and each test was carried out in 6 replicates. The standard deviations of the 6 readings were reported as the error bars.

[3] = system: E. coli
Description: as §1

[4] = system: C. albicans
Description: as §1

[5] = system: P. aeruginosa
Description: as §1

[6] = rat red blood cells, 37° C., 1 hour
[7] = 8 hours incubation, tryptic soy broth, 37° C.
[8] = 8 hours incubation, yeast mould broth, room temperature

Compound | hemolysis at the MIC against B. subtilis [1] | hemolysis at the MIC level for C. albicans [1] | HC50 (50% hemolytic concentration) ([1]; red cells of rat, 1 h) [mg/L] | MIC B. subtilis ([2]; 8 h) [µg/mL] | MIC E. coli ([3]; 8 h) [µg/mL] | MIC C. albicans ([4]; 8 h) [µg/mL] | HC50 (50% hemolytic concentration) [1, 6] [mg/L] | MIC B. subtilis [2, 7] [µg/mL] | MIC E. coli [3, 7] [µg/mL] | MIC C. albicans [4, 8] [µg/mL] | MIC P. aeruginosa ([5]; 8 hours incubation) [µg/mL] | MIC P. aeruginosa ([5]; 8 h) [µg/mL]
FFRRFFRRFFRR-NH2 [(FFRR)3, FFRRFFRRFFRR-NH2] | less than 5% | 12-24% | >500 | 31.3 | >500 | 125 | – | – | – | – | – | –
MLLKKLLKKLLKKM-NH2 [MLLKKLLKKLLKKM-NH2] | – | – | – | – | – | – | ~158 | 31 | 250 | 125 | 31 | –
FFRRFFRR-NH2 [(FFRR)2, FFRRFFRR-NH2] | – | – | >500 | 125 | >500 | >500 | – | – | – | – | – | –
FFRRFFRRFFRRFFRR-NH2 [(FFRR)4, FFRRFFRRFFRRFFRR-NH2] | around 50% | – | ~26 | 20 | >50 | >50 | – | – | – | – | – | –
AARRAARRAARR-NH2 [(AARR)3, AARRAARRAARR-NH2] | – | – | >500 | >500 | >500 | >500 | – | – | – | – | – | –
CC(C)C[C@H](NC(=O)[C@H](CC(C)C)NC(=O)[C@H](CCCCN)NC(=O)[C@H](CCCCN)NC(=O)[C@H](CC(C)C)NC(=O)[C@H](CC(C)C)NC(=O)[C@H](CCCCN)NC(=O)[C@H](CCCCN)NC(=O)[C@H](CC(C)C)NC(=O)[C@H](CC(C)C)NC(=O)[C@@H](N)CS)C(=O)N[C@@H](CCCCN)C(=O)N[C@@H](CCCCN)C(=O)N[C@@H](CS)C(N)=O [CLLKKLLKKLLKKC-NH2] (H-CLLKKLLKKLLKKC-NH2) | – | – | – | – | – | – | ~82 | 31 (≈ 18.5 µM) | 125 (≈ 74.8 µM) | 125 (≈ 74.8 µM) | 125 (≈ 74.8 µM) | –
MLLKKLLKKM-NH2 [MLLKKLLKKM-NH2] | – | – | >2500 | 125 | >500 | 500 | – | – | – | – | – | 500
LLRRLLRRLLRRLLRR-NH2 [(LLRR)4, LLRRLLRRLLRRLLRR-NH2] | around 50% | – | ~12 | 10 | >50 | >50 | – | – | – | – | – | –
LLKKLLKKLLKKC-NH2 [LLKKLLKKLLKKC-NH2] | – | – | – | – | – | – | ~402 | 16 | 150 | 63 | 16 | –
LLKKLLKKC-NH2 [LLKKLLKKC-NH2] | – | – | >2500 | 125 | >500 | 250 | – | – | – | – | – | 63
LLRRLLRRLLRR-NH2 [(LLRR)3, LLRRLLRRLLRR-NH2] | less than 5% | 12-24% | >500 | 15.6 | >500 | 500 | – | – | – | – | – | –
LLKKLLKKLLKK-NH2 [(LLKK)3, LLKKLLKKLLKK-NH2] | less than 5% | – | >500 | 31.3 | >500 | 125 | – | – | – | – | – | –
CC(C)C[C@H](NC(=O)[C@H](CC(C)C)NC(=O)[C@H](CCCCN)NC(=O)[C@H](CCCCN)NC(=O)[C@H](CC(C)C)NC(=O)[C@H](CC(C)C)NC(=O)[C@@H](N)CS)C(=O)N[C@@H](CCCCN)C(=O)N[C@@H](CCCCN)C(=O)N[C@@H](CS)C(N)=O [CLLKKLLKKC-NH2] (H-CLLKKLLKKC-NH2) | – | – | >2500 | 125 (≈ 105 µM) | 225 (≈ 189 µM) | 250 (≈ 210 µM) | – | – | – | – | – | 125 (≈ 105 µM)
